Results taken from ChEMBL document CHEMBL5360657, “Discovery of the TLR7/8 Antagonist MHV370 for Treatment of Systemic Autoimmune Diseases” (ACS Med Chem Lett, 2023).

Columns and labels:
[1] = Metabolic stability in mouse liver microsomes assessed as intrinsic clearance; format: ADME, Microsome; details: read-out: CLH
[2] = Metabolic stability in human liver microsomes assessed as intrinsic clearance; format: ADME, Microsome; details: read-out: CLH
[3] = biological target: T1, Cytochrome P450 3A4 (Homo sapiens, UniProt P08684); assay: Inhibition of CYP3A4 (unknown origin); format: ADME
T1 sequence (P08684 whole entry): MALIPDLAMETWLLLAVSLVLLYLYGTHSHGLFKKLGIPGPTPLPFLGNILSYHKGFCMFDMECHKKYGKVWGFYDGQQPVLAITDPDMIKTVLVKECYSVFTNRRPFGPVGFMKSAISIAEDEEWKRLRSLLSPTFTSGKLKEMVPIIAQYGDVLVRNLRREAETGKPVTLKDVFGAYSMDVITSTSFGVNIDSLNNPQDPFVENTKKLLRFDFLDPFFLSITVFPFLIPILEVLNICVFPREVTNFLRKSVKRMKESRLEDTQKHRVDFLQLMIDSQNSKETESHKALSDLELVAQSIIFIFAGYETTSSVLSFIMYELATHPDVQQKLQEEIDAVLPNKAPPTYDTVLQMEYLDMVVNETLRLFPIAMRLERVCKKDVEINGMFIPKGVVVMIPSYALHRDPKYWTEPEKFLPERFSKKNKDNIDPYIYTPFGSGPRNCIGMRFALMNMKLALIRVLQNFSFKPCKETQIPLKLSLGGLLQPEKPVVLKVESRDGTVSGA

[4] = biological target: T2, Toll-like receptor 9 (Homo sapiens, UniProt Q9NR96); assay: Antagonist activity at TLR9 in human PBMC cells assessed as reduction in IFN alpha measured after 20 hrs by AlphaLISA assay; format: cell-based
T2 sequence (Q9NR96 whole entry): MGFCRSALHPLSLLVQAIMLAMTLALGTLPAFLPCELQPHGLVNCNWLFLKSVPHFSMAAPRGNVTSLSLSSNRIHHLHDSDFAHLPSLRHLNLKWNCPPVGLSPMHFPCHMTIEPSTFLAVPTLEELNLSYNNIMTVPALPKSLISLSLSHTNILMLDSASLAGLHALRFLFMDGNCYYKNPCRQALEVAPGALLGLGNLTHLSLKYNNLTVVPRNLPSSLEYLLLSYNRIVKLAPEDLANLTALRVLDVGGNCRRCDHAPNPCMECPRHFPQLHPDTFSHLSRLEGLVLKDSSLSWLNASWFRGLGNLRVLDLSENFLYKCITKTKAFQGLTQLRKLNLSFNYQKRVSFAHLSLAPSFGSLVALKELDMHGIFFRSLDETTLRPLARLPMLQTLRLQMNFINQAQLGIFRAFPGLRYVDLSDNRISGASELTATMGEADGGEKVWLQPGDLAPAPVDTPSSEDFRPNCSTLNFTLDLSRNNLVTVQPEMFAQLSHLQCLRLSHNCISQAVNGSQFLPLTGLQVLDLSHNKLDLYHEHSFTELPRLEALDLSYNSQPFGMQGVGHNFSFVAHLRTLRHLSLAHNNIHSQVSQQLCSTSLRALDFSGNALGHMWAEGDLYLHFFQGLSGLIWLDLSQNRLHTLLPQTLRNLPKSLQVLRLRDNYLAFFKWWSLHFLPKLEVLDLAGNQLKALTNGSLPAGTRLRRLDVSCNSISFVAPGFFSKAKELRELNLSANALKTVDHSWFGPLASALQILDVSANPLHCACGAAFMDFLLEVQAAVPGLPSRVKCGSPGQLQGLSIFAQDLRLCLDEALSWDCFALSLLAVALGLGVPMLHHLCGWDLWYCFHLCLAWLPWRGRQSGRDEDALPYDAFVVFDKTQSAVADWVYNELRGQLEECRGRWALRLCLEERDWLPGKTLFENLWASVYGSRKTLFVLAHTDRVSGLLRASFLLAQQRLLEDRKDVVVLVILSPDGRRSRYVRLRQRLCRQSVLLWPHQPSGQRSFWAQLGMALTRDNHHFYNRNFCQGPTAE

[5] = biological target: Voltage-gated inwardly rectifying potassium channel KCNH2 (Homo sapiens, UniProt Q12809); assay: Displacement of [3H]-dofetilite from human ERG (unknown origin); format: toxicity
Voltage-gated inwardly rectifying potassium channel KCNH2, sequence (Q12809 whole entry): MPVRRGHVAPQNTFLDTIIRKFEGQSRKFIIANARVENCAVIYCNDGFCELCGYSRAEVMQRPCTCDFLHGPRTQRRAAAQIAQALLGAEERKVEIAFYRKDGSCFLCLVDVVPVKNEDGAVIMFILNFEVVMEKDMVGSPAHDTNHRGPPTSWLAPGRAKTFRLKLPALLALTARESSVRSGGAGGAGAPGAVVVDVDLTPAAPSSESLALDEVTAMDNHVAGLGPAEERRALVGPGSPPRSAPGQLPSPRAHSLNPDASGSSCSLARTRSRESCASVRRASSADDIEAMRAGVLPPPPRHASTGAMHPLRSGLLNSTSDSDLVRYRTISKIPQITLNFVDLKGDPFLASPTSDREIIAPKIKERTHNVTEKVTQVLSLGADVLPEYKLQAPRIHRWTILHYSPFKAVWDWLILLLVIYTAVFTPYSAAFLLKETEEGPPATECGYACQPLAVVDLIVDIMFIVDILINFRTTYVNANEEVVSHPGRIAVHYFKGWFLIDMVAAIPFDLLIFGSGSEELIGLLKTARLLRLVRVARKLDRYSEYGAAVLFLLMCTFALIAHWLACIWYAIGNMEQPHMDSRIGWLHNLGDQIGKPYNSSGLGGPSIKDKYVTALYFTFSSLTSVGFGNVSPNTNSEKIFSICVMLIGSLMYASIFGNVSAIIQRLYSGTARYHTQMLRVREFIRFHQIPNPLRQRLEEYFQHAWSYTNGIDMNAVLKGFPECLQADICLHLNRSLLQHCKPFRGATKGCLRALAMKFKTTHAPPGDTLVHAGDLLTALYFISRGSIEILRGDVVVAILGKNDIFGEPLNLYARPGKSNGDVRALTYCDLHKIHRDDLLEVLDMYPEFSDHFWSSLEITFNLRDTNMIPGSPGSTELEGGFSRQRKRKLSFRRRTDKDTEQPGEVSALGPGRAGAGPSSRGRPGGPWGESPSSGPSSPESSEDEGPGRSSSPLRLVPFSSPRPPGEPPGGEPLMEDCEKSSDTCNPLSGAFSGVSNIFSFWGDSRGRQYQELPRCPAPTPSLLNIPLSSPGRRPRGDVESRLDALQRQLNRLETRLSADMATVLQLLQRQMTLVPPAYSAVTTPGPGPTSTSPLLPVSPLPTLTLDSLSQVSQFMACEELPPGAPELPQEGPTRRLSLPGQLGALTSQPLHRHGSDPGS

[6] = biological target: T3, Toll-like receptor 7 (Homo sapiens, UniProt Q9NYK1); assay: Antagonist activity at TLR7 in human PBMC cells assessed as reduction in IFN alpha measured after 20 hrs by AlphaLISA assay; format: cell-based
T3 sequence (Q9NYK1 whole entry): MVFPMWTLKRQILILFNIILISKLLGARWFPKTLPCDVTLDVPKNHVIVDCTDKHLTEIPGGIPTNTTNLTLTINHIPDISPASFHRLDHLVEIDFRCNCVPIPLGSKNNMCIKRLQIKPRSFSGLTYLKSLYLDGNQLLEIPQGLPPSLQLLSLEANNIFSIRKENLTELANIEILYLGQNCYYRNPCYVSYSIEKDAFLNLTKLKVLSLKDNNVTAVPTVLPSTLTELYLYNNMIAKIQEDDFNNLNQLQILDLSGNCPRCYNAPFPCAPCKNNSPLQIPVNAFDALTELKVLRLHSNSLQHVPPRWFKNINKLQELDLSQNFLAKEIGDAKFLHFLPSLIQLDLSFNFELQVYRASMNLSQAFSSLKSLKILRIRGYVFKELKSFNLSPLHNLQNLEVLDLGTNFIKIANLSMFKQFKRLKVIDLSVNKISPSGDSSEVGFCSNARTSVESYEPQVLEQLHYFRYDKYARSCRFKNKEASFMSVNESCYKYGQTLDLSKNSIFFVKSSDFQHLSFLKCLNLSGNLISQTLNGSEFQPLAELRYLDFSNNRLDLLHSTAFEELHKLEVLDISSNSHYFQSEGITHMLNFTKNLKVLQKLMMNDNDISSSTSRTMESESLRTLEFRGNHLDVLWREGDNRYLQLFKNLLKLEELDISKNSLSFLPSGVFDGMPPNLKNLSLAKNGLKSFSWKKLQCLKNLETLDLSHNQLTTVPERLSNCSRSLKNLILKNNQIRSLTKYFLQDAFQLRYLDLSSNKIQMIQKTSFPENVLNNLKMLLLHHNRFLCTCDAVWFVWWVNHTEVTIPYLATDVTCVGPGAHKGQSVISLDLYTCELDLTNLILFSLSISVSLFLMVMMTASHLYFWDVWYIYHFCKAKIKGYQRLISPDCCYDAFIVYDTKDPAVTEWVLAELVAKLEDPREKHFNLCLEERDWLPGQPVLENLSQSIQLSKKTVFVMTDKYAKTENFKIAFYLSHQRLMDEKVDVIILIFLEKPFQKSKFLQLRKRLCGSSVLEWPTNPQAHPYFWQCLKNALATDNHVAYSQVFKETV

[7] = Metabolic stability in rat liver microsomes assessed as intrinsic clearance; format: ADME, Microsome; details: read-out: CLH
[8] = Permeability of the compound by PAMPA; format: ADME
[9] = biological target: T4, Toll-like receptor 8 (Homo sapiens, UniProt Q9NR97); assay: Antagonist activity at TLR8 in human PBMC cells […] assessed as reduction in IL-6 level measured after 20 hrs by AlphaLISA assay; format: cell-based
T4 sequence (Q9NR97 whole entry): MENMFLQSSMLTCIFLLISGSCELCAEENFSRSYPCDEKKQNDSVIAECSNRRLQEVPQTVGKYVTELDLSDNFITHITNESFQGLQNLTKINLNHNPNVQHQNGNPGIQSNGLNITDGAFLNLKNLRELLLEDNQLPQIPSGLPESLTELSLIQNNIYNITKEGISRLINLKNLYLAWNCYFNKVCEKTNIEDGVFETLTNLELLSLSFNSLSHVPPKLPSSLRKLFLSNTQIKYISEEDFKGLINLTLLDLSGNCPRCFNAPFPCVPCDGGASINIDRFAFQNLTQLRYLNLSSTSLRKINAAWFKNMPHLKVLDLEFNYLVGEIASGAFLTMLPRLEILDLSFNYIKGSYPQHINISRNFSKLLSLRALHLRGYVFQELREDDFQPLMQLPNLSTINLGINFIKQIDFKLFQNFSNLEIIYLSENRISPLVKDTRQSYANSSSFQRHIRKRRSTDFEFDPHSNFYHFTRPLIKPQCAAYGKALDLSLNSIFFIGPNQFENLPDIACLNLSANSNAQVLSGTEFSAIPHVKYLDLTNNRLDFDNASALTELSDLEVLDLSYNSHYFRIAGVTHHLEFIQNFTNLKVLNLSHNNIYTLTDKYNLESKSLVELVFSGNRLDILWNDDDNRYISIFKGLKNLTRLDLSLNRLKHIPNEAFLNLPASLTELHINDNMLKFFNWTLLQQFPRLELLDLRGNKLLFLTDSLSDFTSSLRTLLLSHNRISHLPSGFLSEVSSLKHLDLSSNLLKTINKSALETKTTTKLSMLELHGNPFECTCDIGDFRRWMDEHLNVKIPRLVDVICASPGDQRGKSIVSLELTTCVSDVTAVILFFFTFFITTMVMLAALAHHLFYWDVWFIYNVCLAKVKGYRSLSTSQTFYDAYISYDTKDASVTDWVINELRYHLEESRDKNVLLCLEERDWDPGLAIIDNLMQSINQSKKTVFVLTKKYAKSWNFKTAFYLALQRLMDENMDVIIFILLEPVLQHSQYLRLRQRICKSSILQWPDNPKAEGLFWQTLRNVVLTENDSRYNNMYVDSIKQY

[10] = biological target: T1, Cytochrome P450 3A4; assay: Time dependent inhibition of CYP3A4 (unknown origin) assessed as Kobs; format: ADME
[11] = Solubility of the compound; format: physicochemical

Row | Compound | microsomal CLint [1] [µL/min/mg] | microsomal CLint [2] [µL/min/mg] | IC50 [3] [µM] | IC50 [4] [nM] | IC50 [6] [nM] | microsomal CLint [7] [µL/min/mg] | log(permeability) [8] | IC50 [9] [nM] | Kobs [10] [min⁻¹] | solubility [11] [µM] | IC50 [5] [µM]
1 | Cc1cc(N2CCc3c(c(C)nn3CC34CCC(NC(=O)CN5CCCC5)(CC3)CC4)C2)c2cnn(C)c2n1 | 531 | 329 |  | 1200 | 4 | < 15 | -4.1 |  |  |  | 
2 | Cc1cc(N2CCc3c(c(C)nn3CC34CCC(NC(=O)CN(C)C)(CC3)CC4)C2)c2cnn(C)c2n1 | 104 | 147 | > 50 | 730 | 6 | 33 | -4.3 | 25 | 0.006 |  | > 30
3 | CN[C@H](C)C(=O)NC12CCC(Cn3nc(C)c4c3CCN(c3cc(C)nc5c3cnn5C)C4)(CC1)CC2 | 120 | < 15 | > 50 | 780 |  | < 15 | -5.3 | 190 | 0.023 |  | > 30
4 | CC(=O)NC12CCC(Cn3nc(C)c4c3CCN(c3cc(C)nc5c3cnn5C)C4)(CC1)CC2 |  | 63 | 24 | 5200 |  | 45 | -4.6 | > 10000 | 0.022 | > 175 | > 30
5 | Cc1cc(N2CCc3c(c(C)nn3CC34CCC(NC(=O)[C@H]5COCCN5)(CC3)CC4)C2)c2cnn(C)c2n1 | 382 | 54 | > 50 | 1900 | 13 | < 15 | -5.3 | 220 | 0.018 |  | > 30
6 | Cc1cc(N2CCc3c(c(C)nn3CC34CCC(NCC(F)F)(CC3)CC4)C2)c2cnn(C)c2n1 |  | 423 | 8.6 |  |  | 656 | -3.7 | 140 | 0.011 | > 175 | > 30
7 | Cc1cc(N2CCc3c(c(C)nn3CC34CCC(NC(=O)[C@@H]5CNCCO5)(CC3)CC4)C2)c2cnn(C)c2n1 | 93 | 135 | 5.5 | 190 | 2 | 24 | -5.2 | 67 |  |  | 
8 | Cc1cc(N2CCc3c(c(C)nn3CC34CCC(NCC(=O)N(C)C)(CC3)CC4)C2)c2cnn(C)c2n1 | < 15 | 31 |  | 3000 | 41 | 29 | -5.4 | 190 |  |  | 
9 | CCN(C)CC(=O)NC12CCC(Cn3nc(C)c4c3CCN(c3cc(C)nc5c3cnn5C)C4)(CC1)CC2 | > 700 | 463 | 28 |  | < 5 | 48 | -4.1 | 7 | 0.013 |  | > 30

The next lines start with results.

Row | microsomal CLint [1] [µL/min/mg] | microsomal CLint [2] [µL/min/mg] | IC50 [3] [µM] | IC50 [4] [nM] | IC50 [6] [nM] | microsomal CLint [7] [µL/min/mg] | log(permeability) [8] | IC50 [9] [nM] | Kobs [10] [min⁻¹] | solubility [11] [µM] | Compound | IC50 [5] [µM]
10 | 251 | 71 | > 50 | 5500 | 19 | 50 | -4.3 |  |  |  | Cc1cc(N2CCc3c(c(C)nn3CC34CCC(N5CCN(C)CC5=O)(CC3)CC4)C2)c2cnn(C)c2n1 | > 30
11 |  | 90 | 17 | 280 | 1 | 37 | -4.6 | 60 | 0.044 |  | Cc1cc(N2CCc3c(c(C)nn3CC34CCC(NC(=O)CN5CCC5)(CC3)CC4)C2)c2cnn(C)c2n1 | > 30
12 | 24 | 62 | 18 | 350 |  | 55 | -4.7 | 85 | 0.022 | > 175 | Cc1cc(N2CCc3c(c(C)nn3CC34CCC(N5CCCC5)(CC3)CC4)C2)c2cnn(C)c2n1 | 11
13 | 103 | 39 | > 50 | > 7300 | 56 | 87 | -5 | 400 | 0.015 |  | Cc1cc(N2CCc3c(c(C)nn3CC34CCC(N5CCN(C)C(=O)C5)(CC3)CC4)C2)c2cnn(C)c2n1 | > 30
14 | 65 | 96 | > 50 | 530 | 5 | 30 | -4.7 | 120 | 0.015 |  | Cc1cc(N2CCc3c(c(C)nn3CC34CCC(N5CCC5)(CC3)CC4)C2)c2cnn(C)c2n1 | > 30
